{"source": "patent US20210340142A1", "about": "“SALT FORM AND CRYSTAL FORM OF NOVEL AZATRICYCLIC COMPOUND AND USE THEREOF” (BETTA PHARMACEUTICALS CO., LTD, priority 2018, published 2021)", "key": {"[1]": {"test": "Hygroscopicity assessment by dynamic vapor sorption (DVS)", "type": "physicochemical", "conditions": "weight change between 0% RH to 80% RH, 25° C.", "description": "The hygroscopicity of the sample (the sample is a variety of crystal forms shown in Table 26) was tested using dynamic vapor sorption (DVS) instrument, and the water uptake of the sample at 0% RH (relative humidity) to 80% RH was tested."}, "FGFR2": {"target": "FGFR2 (Homo sapiens, UniProt P21802)", "sequence (P21802 22-821, species assumed)": "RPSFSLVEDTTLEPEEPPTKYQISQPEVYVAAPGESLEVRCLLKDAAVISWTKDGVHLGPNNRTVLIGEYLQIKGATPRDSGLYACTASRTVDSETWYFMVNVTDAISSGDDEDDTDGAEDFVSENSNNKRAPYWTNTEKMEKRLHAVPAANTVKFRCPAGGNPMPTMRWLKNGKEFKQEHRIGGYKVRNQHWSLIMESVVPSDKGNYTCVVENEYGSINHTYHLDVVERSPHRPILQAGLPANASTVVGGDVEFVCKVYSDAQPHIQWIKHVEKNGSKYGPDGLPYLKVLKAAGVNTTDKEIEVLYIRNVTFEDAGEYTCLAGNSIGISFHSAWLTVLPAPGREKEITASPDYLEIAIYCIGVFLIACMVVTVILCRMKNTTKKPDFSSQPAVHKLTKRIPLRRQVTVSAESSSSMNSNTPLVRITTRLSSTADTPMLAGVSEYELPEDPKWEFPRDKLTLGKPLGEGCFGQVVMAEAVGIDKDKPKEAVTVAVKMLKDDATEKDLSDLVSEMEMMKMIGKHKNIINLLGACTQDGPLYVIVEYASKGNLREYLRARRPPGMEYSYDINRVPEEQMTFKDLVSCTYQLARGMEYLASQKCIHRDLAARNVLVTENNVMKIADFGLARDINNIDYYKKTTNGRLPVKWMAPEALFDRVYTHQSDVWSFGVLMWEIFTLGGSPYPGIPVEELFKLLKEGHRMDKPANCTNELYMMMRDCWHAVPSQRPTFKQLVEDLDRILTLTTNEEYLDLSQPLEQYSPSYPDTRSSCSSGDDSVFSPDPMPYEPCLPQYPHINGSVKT", "test": "Kinase assay (mobility shift assay)", "quoted_text": "(§1) Prepare compounds: dilute test compounds to specific concentration using 100% DMSO"}, "[2]": {"test": "Pharmacokinetic study of compound of Formula I and maleate salt crystalline form 1 (Example 22)", "type": "in vivo", "conditions": "male, rat, plasma, SD rats, oral, 10 mg/kg, 10% DMSO/10% Solutol/80% Water", "description": "Drugs and reagents: 6-(2-chloro-3,5-dimethoxyphenyl)-N-(4-(4-morpholinopiperidin-1-yl)phenyl)-[1,2,4]triazolo[4′, 3′:1,6]pyrido[2,3-d]pyrimidin-2-amine (compound of Formula I), and maleate salt crystalline form 1 of the compound of Formula I used in this study were grounded to fine particles. The material content (purity) was not less than 99.0%.\nExperimental animals: SD rats were randomly divided into the compound of Formula I group and maleate salt crystalline form 1 group, each group including three male rats.\nPharmaceutical preparation: each compound was prepared into a clear solution in 10% DMSO/10% Solutol/80% Water solution, the final concentration of each compound was 1 mg/mL.\nAdministration and sample collection: each suspension was orally administered to fasted SD rats with a dose volume of 10 mL/kg and an administration dose of 10 mg/kg. The blood samples were collected in EDTA-K pre-anticoagulantion tubes before administration (0 h) and at 0.25 h, 0.5 h, 1 h, 2 h, 4 h, 7 h and 24 h after administration. The plasma was separated from the samples by centrifugation at 4000 rpm for 10 minutes at 4° C. The plasma was collected and stored at −80° C. for analysis.\nThe samples were analyzed by AB4000 API LC/MS combined with HPLC. Under liquid chromatography conditions, a phenomenex C18 2.6 u (50×2.1 mm) column was used as the stationary phase, acetonitrile-water and 0.1% formic acid were used as the mobile phase, and the injection volume was 10 μL."}, "NCI-H1581 cells": {"tested_on": "NCI-H1581 cells", "test": "cells", "conditions": "Homo sapiens, NCI-H1581, read-out: IC50 on NCI-H1581 cells", "description": "100 μl of CellTiter-Glo reagent was added to the assay plate and incubated for 10 min at room temperature to stabilize the luminescence signal."}, "[3]": {"test": "Pharmacokinetic study of compound of Formula I and salt forms (Example 23)", "type": "in vivo", "conditions": "male, rat, plasma, SD rats, oral, 10 mg/kg, prepared in purified water 0.5 mg/mL", "quoted_text": "Drugs and reagents: 6-(2-chloro-3,5-dimethoxyphenyl)-N-(4-(4-morpholinopiperidin-1-yl)phenyl)-[1,2,4]triazolo[4′,3′:1,6]pyrido[2,3-d]pyrimidin-2-amine (compound of Formula I) and salt forms thereof which include malate salt crystalline form, tartrate salt crystalline form, phosphate salt crystalline form, methanesulfonate salt crystalline form, hydrochloride salt crystalline form, fumarate salt crystalline form, citrate salt crystalline form, besylate salt crystalline form used in this study were ground to fine particles.\nExperimental animals: SD rats were randomly divided into the compound of Formula I group and each salt crystalline form of the compound of Formula I group, each group including three male rats.\nPharmaceutical preparation: each compound was prepared in purified water, wherein, the mesylate salt crystalline form, hydrochloride salt crystalline form and besylate salt crystalline form were prepared into a clear solution, the malate salt crystalline form, tartrate salt crystalline form, phosphate salt crystalline form, fumarate salt crystalline form, citrate salt crystalline form and sulfate salt crystalline form were prepared into a suspension, and final concentration of each compound was 0.5 mg/mL. […]\nThe samples were analyzed by AB4000 API LC/MS combined with HPLC. […]"}, "[4]": {"test": "Stability assessment (influencing factors, 14 days; XRD, TGA, HPLC)", "type": "physicochemical", "conditions": "for Crystalline form (XRD) / Decrease value of the main ingredient content (HPLC) / Weight loss (TGA): 14th day", "description": "Samples and preparation of experimental: An appropriate amount of maleate salt crystalline form 1, methanesulfonate salt crystalline form 1 and the compound of Formula I were put in watch glasses, and then spread into a thin layer about 3-5 mm in thickness.\nExperimental conditions: Under conventional (25° C., avoid light), high temperature (60° C., avoid light), high temperature and high humidity (40° C./75% RH, open and avoid light), light (25° C., 4500 lux±500 lux, open) and oxidation (40° C., container closure containing urea hydrogen peroxide, open and avoid light) conditions for 14 days.\nTest items: Sampled on 0th day and 14th day, the XRD, TGA and HPLC were tested and compared, the test results on the 14th day were show in Table 27."}, "FGFR4": {"target": "FGFR4 (Homo sapiens, UniProt P22455)", "sequence (P22455 22-802, species assumed)": "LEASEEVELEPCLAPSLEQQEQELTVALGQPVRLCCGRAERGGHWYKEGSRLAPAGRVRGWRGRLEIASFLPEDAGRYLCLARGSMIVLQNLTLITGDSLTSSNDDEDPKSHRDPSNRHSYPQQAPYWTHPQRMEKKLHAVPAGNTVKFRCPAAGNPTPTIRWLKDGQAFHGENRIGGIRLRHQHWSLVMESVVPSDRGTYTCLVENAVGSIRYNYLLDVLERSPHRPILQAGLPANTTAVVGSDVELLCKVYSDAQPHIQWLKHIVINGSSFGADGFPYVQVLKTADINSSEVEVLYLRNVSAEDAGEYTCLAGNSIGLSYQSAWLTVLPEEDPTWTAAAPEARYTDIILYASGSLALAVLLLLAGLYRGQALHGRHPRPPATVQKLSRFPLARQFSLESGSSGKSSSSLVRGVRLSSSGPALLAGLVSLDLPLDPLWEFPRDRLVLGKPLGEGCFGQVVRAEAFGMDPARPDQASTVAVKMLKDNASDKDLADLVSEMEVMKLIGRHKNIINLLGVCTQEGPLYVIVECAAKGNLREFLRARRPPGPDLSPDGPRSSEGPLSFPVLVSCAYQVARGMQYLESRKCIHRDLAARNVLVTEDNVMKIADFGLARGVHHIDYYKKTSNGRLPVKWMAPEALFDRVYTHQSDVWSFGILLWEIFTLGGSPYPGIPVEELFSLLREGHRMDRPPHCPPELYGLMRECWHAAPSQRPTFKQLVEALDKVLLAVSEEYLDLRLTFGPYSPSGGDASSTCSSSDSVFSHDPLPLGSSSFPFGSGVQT", "test": "Kinase assay (mobility shift assay)", "quoted_text": "as §1"}, "SNU-16 cells": {"tested_on": "SNU-16 cells", "test": "Cell proliferation assay (CellTiter Glo)", "type": "cell-based", "conditions": "Homo sapiens, growth inhibition in vitro, 96 hrs", "protocol": "Test method: the cells were added appropriate volume of whole medium to suspend. 100 μl of the cell suspension was added to a 96-well plate and placed in a CO2 incubator overnight. Tested compounds were dissolved in DMSO and subjected to a 3-fold gradient dilution for a total of 10 concentrations. Tested compound and DMSO reference materials were transferred to the corresponding wells containing 100 μl of medium respectively. Incubated in 5% CO2 at 37° C. for 96 hrs. 100 μl of CellTiter-Glo reagent was added to the assay plate and incubated for 10 min at room temperature to stabilize the luminescence signal. The IC50 value was calculated by recording the RLU (relative luminescence unit) using VICTOR TM X5 instrument."}, "FGFR3": {"target": "FGFR3 (Homo sapiens, UniProt P22607)", "sequence (P22607 23-806, species assumed)": "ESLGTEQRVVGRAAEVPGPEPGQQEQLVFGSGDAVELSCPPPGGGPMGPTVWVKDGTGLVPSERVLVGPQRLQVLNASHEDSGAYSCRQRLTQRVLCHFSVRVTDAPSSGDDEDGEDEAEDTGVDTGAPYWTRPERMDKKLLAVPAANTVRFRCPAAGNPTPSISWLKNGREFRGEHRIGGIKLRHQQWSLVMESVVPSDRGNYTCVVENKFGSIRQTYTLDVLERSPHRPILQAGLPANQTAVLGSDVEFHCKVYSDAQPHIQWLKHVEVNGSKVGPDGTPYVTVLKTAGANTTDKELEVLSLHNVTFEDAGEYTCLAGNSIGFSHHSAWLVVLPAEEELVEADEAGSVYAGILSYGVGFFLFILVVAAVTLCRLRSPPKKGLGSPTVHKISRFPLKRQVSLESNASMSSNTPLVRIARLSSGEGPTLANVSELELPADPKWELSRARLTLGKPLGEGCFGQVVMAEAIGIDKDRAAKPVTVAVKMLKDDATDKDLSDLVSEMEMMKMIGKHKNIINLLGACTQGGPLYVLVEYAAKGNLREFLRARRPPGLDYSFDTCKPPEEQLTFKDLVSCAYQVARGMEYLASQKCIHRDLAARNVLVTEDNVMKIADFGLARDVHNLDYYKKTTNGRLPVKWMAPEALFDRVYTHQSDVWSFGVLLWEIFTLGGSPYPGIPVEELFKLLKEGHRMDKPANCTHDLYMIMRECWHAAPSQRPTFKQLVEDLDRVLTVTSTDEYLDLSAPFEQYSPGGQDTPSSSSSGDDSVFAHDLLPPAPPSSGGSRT", "test": "Kinase assay (mobility shift assay)", "quoted_text": "as §1"}, "[5]": {"conditions": "conventional (25° C., avoid light)"}, "[6]": {"conditions": "high temperature (60° C., avoid light)"}, "[7]": {"conditions": "high temperature and high humidity (40° C./75% RH)"}, "[8]": {"conditions": "oxidation (40° C., urea hydrogen peroxide)"}}, "data": [{"smiles": "COc1cc(OC)c(Cl)c(-c2cc3cnc(Nc4ccc(N5CCC(N6CCOCC6)CC5)cc4)nc3n3cnnc23)c1", "note": "[compound of Formula I, 6-(2-chloro-3,5-dimethoxyphenyl)-N-(4-(4-morpholinopiperidin-1-yl)phenyl)-[1,2,4]triazolo[4′,3′:1,6]pyrido[2,3-d]pyrimidin-2-amine]", "values": [{"measurement": "water uptake", "setting": "[1]", "value": 15.3, "unit": "%"}, {"measurement": "IC50", "setting": "FGFR2", "value": 1.7, "unit": "nM"}, {"measurement": "AUC(0-inf)", "setting": "[2]", "value": 6520, "unit": "ng·h/mL"}, {"measurement": "Cmax", "setting": "[2]", "value": 443, "unit": "ng/mL"}, {"measurement": "Tmax", "setting": "[2]", "value": 6, "unit": "h"}, {"measurement": "half-life", "setting": "[2]", "value": 7.9, "unit": "h"}, {"measurement": "AUC(0-t)", "setting": "[2]; read-out: AUC(0-24)", "value": 5870, "unit": "ng·h/mL"}, {"measurement": "IC50", "setting": "NCI-H1581 cells", "value": 2, "unit": "nM"}, {"measurement": "Cmax", "setting": "[3]", "value": 179, "unit": "ng/mL"}, {"measurement": "AUC(0-t)", "setting": "[3]; read-out: AUC(0-24)", "value": 786, "unit": "ng·h/mL"}, {"measurement": "Crystalline form (XRD)", "setting": "[4]; [5]", "value": "unchanged"}, {"measurement": "Decrease value of the main ingredient content (HPLC)", "setting": "[4]; [5]", "value": "<0.4", "unit": "%"}, {"measurement": "Weight loss (TGA)", "setting": "[4]; [5]", "value": "20%-22%"}, {"measurement": "Crystalline form (XRD)", "setting": "[4]; [6]", "value": "transformed"}, {"measurement": "Decrease value of the main ingredient content (HPLC)", "setting": "[4]; [6]", "value": 13.5, "unit": "%"}, {"measurement": "Weight loss (TGA)", "setting": "[4]; [6]", "value": "about 18%"}, {"measurement": "Decrease value of the main ingredient content (HPLC)", "setting": "[4]; [7]", "value": "<0.4", "unit": "%"}, {"measurement": "Weight loss (TGA)", "setting": "[4]; [7]", "value": "20%-22%"}, {"measurement": "Crystalline form (XRD)", "setting": "[4]; high temperature and high humidity (40° C./75% RH, open, avoid light)", "value": "decrease"}, {"measurement": "Weight loss (TGA)", "setting": "[4]; light (25° C., 4500 lux±500 lux)", "value": "20%-22%"}, {"measurement": "Crystalline form (XRD)", "setting": "[4]; light (25° C., 4500 lux±500 lux, open)", "value": "transformed"}, {"measurement": "Decrease value of the main ingredient content (HPLC)", "setting": "[4]; [8]", "value": 40.3, "unit": "%"}, {"measurement": "Weight loss (TGA)", "setting": "[4]; [8]", "value": "about 27%"}, {"measurement": "Crystalline form (XRD)", "setting": "[4]; oxidation (40° C., urea hydrogen peroxide, open, avoid light)", "value": "transformed"}, {"measurement": "stability of crystalline form (XRD, overall statement)", "setting": "[4]; 14 days, all conditions", "value": "relatively low"}, {"measurement": "IC50", "setting": "FGFR4", "value": 21, "unit": "nM"}, {"measurement": "IC50", "setting": "SNU-16 cells", "value": "< 1", "unit": "nM"}, {"measurement": "IC50", "setting": "FGFR3", "value": 1.2, "unit": "nM"}]}]}
